Series [1] concerns the target T1, HSA (Homo sapiens, UniProt P02768).
T1 construct: purchased H13H-2433
Conditions: literature value of human serum albumin binding (Yamazaki 2004); calibration reference; cited from earlier work.

Series [2] deals with T1, HSA. Kind of series: HSA binding on Chiralpak HSA column. Type of series: in vitro ADME. The note with it: for Log K HSA: logarithmic K of human serum albumin binding, calibration reference; for HSA Binding: Chiralpak HSA column (50 × 3 mm, 5 μm), (n = 6).
Description: The mobile phase (A: NH4OAc, 50 mM in water, pH 7 and B: isopropanol) was freshly prepared for each experiment and only used for one day. The column was kept at room temperature and each run was stopped after detection of the signal to reduce the acquisition time. All substances were dissolved in a 0.5 mg/ml concentration in 50% 2-propanol and 50% 50 mM pH 6.9 ammonium acetate buffer. […] All nine reference substances were injected consecutively to establish a non-linear regression with Origin Pro 2016G.
A further series addresses T2, PSMA (Homo sapiens, UniProt Q04609).
T2 construct: endogenous in cells; host or cells: LNCaP cells
As to the kind of experiment: Determination of IC50: PSMA affinity, competition with ([125I]I-BA)KuE on LNCaP cells. Format: binding. Here is the method:
After removal of the culture medium, the cells were treated once with 500 μL of HBSS (Hank's balanced salt solution, Biochrom, Berlin, Germany, with addition of 1% bovine serum albumin (BSA)) and left 15 min on ice for equilibration in 200 μL HBSS (1% BSA). […] Quantification of bound and free radioligand was accomplished in a γ-counter.

A further series concerns LNCaP cells. Kind of series: Internalization into LNCaP cells, relative to ([125I]I-BA)KuE. Format: cell-based. Conditions: for internalization rate Mean / individual internalization rates: LNCaP cells, 1 h, 37 °C, c=0.5 nM; for individual internalization rates: single measurements. Here is the method: Data is corrected for non-specific binding ([…]) and expressed as mean±SD (n=3).
Subsequent to the removal of the culture medium, the cells were washed once with 500 μL DMEM-F12 (5% BSA) and left to equilibrate for at least 15 min at 37° C. in 200 μL DMEM-F12 (5% BSA). Each well was treated with either 25 μL of either DMEM-F12 (5% BSA) or a 100 μM PMPA solution for blockade. Next, 25 μL of the ^68Ga/^18F-labeled PSMA inhibitor (5.0 nM) was added and the cells incubated at 37° C. for 60 min. The experiment was terminated by placing the 24-well plate on ice for 3 min and consecutive removal of the medium. Each well was rinsed with 250 μL HBSS and the fractions from these first two steps combined, representing the amount of free radioligand. Removal of surface bound activity was accomplished by incubation of the cells with 250 μL of ice-cold PMPA (10 μM in PBS) solution for 5 min and rinsed again with another 250 μL of ice-cold PBS. The internalized activity was determined by incubation of the cells in 250 μL 1 M NaOH and the combination with the fraction of a subsequent wash step with 250 μL 1.0 M NaOH. Each experiment (control and bloackde) was performed in triplicate. Free, surface bound and internalized activity was quantified in a γ-counter. […] Data were corrected for non-specific internalization and normalized to the specific-internalization observed for the radioiodinated reference compound.

Series [3] concerns LNCaP tumor-bearing CB-17 SCID mice. Conditions: male, mouse, in vivo, 1 h.
Description: To establish tumor xenografts, LNCaP cells (10^7 cells/200 μL) were suspended in a 1:1 mixture (v/v) of Dulbecco modified Eagle medium/Nutrition Mixture F-12 with Glutamax-I (1:1) and Matrigel (BD Biosciences, Germany), and inoculated subcutaneously onto the right shoulder of 6-8 weeks old CB17-SCID mice (Charles River, Sulzfeld, Germany). Mice were used for when tumors had grown to a diameter of 5-8 mm (3-4 weeks after inoculation).
Approximately 1-2 MBq (<0.2 nmol) of the ^18F-labeled PSMA inhibitor was injected into the tail vein of LNCaP tumor-bearing male CB-17 SCID mice and sacrificed after 1 h post injection (n=4-5). Selected organs were removed, weighted and measured in a γ-counter
Series [4] in a line: Octanol-water partition coefficient (n-octanol/PBS pH 7.4). Type of series: physicochemical. Here is the method: Approximately 1 MBq of the labeled tracer was dissolved in 1 mL of a 1:1 mixture (by volumes) of phosphate buffered saline (PBS, pH 7.4) and n-octanol in an Eppendorf tube. After vigorous mixing of the suspension for 3 minutes at room temperature, the vial was centrifuged at 15000 g for 3 minutes (Biofuge 15, Heraus Sepatech, Osterode, Germany) and 100 μL aliquots of both layers were measured in a gamma counter. The experiment was repeated at least six times.
Determianation of the logP values was carried out in phosphate buffered saline (PBS, pH 7.4) and n-octanol (=logPoct/PBS).

The conditions of series [5]: Wängler et al., Bioconjug Chem. 2010; cited from earlier work.
Setting [6] is: LNCaP cells, [125I]IB-KuE 0.2 nM, 1 h, 4 °C, HBSS+1% BSA, single measurements, read-out: individual IC50 measurements.
Where [7] appears, read: LNCaP cells, [125I]IB-KuE 0.2 nM, 1 h, 4 °C, mean of the individual measurements, read-out: IC50 Mean.
Where [8] appears, read: mean ± SD as quoted in the discussion.

“And” between values parts separate entries of the source, which are not always exact repeats. Equal entries are not always repeated. Where two headings read alike, the source gives them in different places.

T1 sequence (P02768 25-609): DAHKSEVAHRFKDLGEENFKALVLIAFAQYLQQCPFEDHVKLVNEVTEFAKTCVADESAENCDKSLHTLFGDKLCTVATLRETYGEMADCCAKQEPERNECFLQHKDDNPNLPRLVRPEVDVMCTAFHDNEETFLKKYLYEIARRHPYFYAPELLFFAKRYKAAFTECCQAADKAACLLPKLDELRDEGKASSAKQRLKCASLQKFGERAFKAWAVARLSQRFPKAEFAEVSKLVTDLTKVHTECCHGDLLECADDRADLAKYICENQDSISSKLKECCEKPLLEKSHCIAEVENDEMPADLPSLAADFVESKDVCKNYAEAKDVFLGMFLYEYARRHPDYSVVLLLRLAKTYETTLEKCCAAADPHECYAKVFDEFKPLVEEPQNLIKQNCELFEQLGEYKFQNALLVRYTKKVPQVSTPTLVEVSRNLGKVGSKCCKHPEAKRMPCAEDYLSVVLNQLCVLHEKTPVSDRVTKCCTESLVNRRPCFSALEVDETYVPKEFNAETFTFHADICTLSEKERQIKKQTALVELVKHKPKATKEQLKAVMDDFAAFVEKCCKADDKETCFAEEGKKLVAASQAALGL
T2 sequence (Q04609 whole entry): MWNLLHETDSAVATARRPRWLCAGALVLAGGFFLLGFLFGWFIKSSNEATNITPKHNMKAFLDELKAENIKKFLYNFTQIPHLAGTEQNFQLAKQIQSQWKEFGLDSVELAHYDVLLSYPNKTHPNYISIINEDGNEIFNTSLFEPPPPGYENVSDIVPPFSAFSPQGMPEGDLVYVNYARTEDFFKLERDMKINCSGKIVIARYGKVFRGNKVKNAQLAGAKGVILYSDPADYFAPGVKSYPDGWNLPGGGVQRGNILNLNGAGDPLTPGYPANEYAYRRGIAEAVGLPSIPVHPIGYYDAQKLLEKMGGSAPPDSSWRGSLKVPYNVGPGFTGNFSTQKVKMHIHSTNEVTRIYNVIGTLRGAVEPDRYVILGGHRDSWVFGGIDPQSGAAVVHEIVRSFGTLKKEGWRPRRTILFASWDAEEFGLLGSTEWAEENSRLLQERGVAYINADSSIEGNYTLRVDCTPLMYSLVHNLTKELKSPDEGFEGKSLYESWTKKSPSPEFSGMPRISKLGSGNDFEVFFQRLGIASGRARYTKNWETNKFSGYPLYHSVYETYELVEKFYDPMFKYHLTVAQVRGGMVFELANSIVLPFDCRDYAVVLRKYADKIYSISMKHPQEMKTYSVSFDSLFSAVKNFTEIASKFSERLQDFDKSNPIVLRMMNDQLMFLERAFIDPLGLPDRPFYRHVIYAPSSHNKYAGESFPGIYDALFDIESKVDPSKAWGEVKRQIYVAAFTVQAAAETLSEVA

On to `Nc1ccccc1` [Aniline], for which, at HSA [1], the “Lit. HSA %” value is 14.06%. For the same compound, the “Log K HSA” value on HSA [2] is recorded as −0.79.

Consider `O=C(O)c1ccccc1` [Benzoic Acid], for which the “Lit. HSA %” value at HSA [1] is recorded as 34.27%.

On to `O=C(O)CC[C@H](NC(=O)N[C@@H](CCCCNC(=O)c1ccc(F)nc1)C(=O)O)C(=O)O` [DCFPyL], for which, on HSA [2], the “HSA Binding” value turned out to be 14.3%.

For `COc1ccc(Cl)cc1C(=O)NCCc1ccc(S(=O)(=O)NC(=O)NC2CCCCC2)cc1` [Glibenclamide], at HSA [1], the “Lit. HSA %” value is 99.00%. Moreover, at HSA [2], the “Log K HSA” value stood at 1.69.

Turning to `Oc1ccccc1` [Phenol], the “Lit. HSA %” value at HSA [1] was 20.69%. Further, the “Log K HSA” value at HSA [2] is −0.59.

As for `CCCN(CCC)S(=O)(=O)c1ccc(C(=O)O)cc1` [Probenecid], the “Lit. HSA %” value at HSA [1] was 95.00%.

Take `O=[N+]([O-])c1ccc(O)cc1` [p-nitrophenol]: on HSA [1], the “Lit. HSA %” value was 77.65%.

For `CC(C)(C)[Si](F)(c1ccc(C(=O)NC[C@@H](NC(=O)CC[C@H](C(=O)O)N2CCN(CC(=O)O)CCN(CC(=O)O)CCN(CC(=O)O)CC2)C(=O)N[C@H](CCCCNC(=O)CCC(=O)NCCC[C@@H](NC(=O)CC[C@H](NC(=O)N[C@@H](CCC(=O)O)C(=O)O)C(=O)O)C(=O)O)C(=O)O)cc1)C(C)(C)C` [rhPSMA7.1, [^19F][^natGa]D-Dap-R-DOTAGA-rhPSMA7, metal not drawn], the IC50 at PSMA (setting [6]) is 5.04 nM and 7.11 nM and 8.31 nM and 4.97 nM and 6.44 nM and 8.74 nM and 6.91 nM and 7.27 nM. Also, the IC50 at PSMA (setting [7]) is 6.85 nM. Besides, in the series on LNCaP cells, the “internalization rate Mean” value was 69.55 % of [^125I]IB-KuE; the individual internalization rates was 77.5 % of [^125I]IB-KuE and 61.8 % of [^125I]IB-KuE and 70.6 % of [^125I]IB-KuE and 68.0 % of [^125I]IB-KuE and 67.9 % of [^125I]IB-KuE and 71.5 % of [^125I]IB-KuE. Also, the internalization in the series on LNCaP cells (setting [8]) is on record as 69.55%±5.29. Further, in series [3], the Biodistribution adrenals stood at 2.0 ± 0.25 % ID/g, the Biodistribution blood is listed as 0.53 ± 0.13 % ID/g, the Biodistribution bone was 0.50 ± 0.31 % ID/g and the Biodistribution heart came out at 0.53 ± 0.03 % ID/g. Also, in series [3], the Biodistribution intestine was 0.30 ± 0.16 % ID/g, the Biodistribution kidneys was 220 ± 24.8 % ID/g, the Biodistribution liver was 0.75 ± 0.62 % ID/g and the Biodistribution lung came to 1.1 ± 0.21 % ID/g. For the same compound, in series [3], the Biodistribution muscle amounted to 0.32 ± 0.30 % ID/g, the Biodistribution pancreas is listed as 0.45 ± 0.12 % ID/g, the Biodistribution spleen stood at 20.0 ± 4.2 % ID/g and the Biodistribution stomach is on record as 0.28 ± 0.17 % ID/g. This compound yielded a Biodistribution tumor in series [3] of 14.1 ± 4.1 % ID/g. Moreover, at HSA [2], the “HSA Binding” value came to 97.7%.

On to `CC(C)(C)[Si](F)(c1ccc(C(=O)NC[C@H](NC(=O)CC[C@H](C(=O)O)N2CCN(CC(=O)O)CCN(CC(=O)O)CCN(CC(=O)O)CC2)C(=O)N[C@H](CCCCNC(=O)CCC(=O)NCCC[C@@H](NC(=O)CC[C@H](NC(=O)N[C@@H](CCC(=O)O)C(=O)O)C(=O)O)C(=O)O)C(=O)O)cc1)C(C)(C)C` [rhPSMA7.2, [^19F][^natGa]L-Dap-R-DOTAGA-rhPSMA7, metal not drawn], for which the IC50 at PSMA (setting [6]) is 2.64 nM and 2.76 nM and 3.94 nM and 5.8 nM and 4.31 nM and 4.32 nM and 3.17 nM and 2.97 nM and 3.36 nM. Also, the IC50 at PSMA (setting [7]) stood at 3.7 nM. Also, in the series with LNCaP cells, the “internalization rate Mean” value was 191.83 % of [^125I]IB-KuE; the individual internalization rates is 192.3 % of [^125I]IB-KuE and 188.7 % of [^125I]IB-KuE and 182.7 % of [^125I]IB-KuE and 169.5 % of [^125I]IB-KuE and 205.3 % of [^125I]IB-KuE and 212.6 % of [^125I]IB-KuE. The internalization in the series on LNCaP cells (setting [8]) is on record as 191.83%±15.54. The “individual log P measurements” value in series [4] (octanol/PBS7.4, single measurements) is −3.00 and −3.02 and −3.06 and −3.45. The log partition coefficient (logP) in series [4] (pH 7.4, log P) was -3.13 ± 0.22. Besides, the logP in series [4] (pH 7.4, log P Mean) is -3.13. In series [3], this compound had a Biodistribution adrenals of 1.3 ± 0.8 % ID/g, a Biodistribution blood of 0.56 ± 0.20 % ID/g, a Biodistribution bone of 0.31 ± 0.24 % ID/g and a Biodistribution heart of 0.32 ± 0.13 % ID/g. In series [3], this compound came in with a Biodistribution intestine of 0.18 ± 0.07 % ID/g, a Biodistribution kidneys of 87.6 ± 28.8 % ID/g, a Biodistribution liver of 0.35 ± 0.08 % ID/g and a Biodistribution lung of 0.89 ± 0.38 % ID/g. In series [3], this compound had a Biodistribution muscle of 0.13 ± 0.07 % ID/g, a Biodistribution pancreas of 0.21 ± 0.08 % ID/g, a Biodistribution spleen of 10.1 ± 6.3 % ID/g and a Biodistribution stomach of 0.19 ± 0.08 % ID/g. In series [3], this compound displayed a Biodistribution tumor of 6.5 ± 2.3 % ID/g. At HSA [2], the “HSA Binding” value amounted to 97.8%.

Turning to `CC(C)(C)[Si](F)(c1ccc(C(=O)NC[C@H](NC(=O)CC[C@@H](C(=O)O)N2CCN(CC(=O)O)CCN(CC(=O)O)CCN(CC(=O)O)CC2)C(=O)N[C@H](CCCCNC(=O)CCC(=O)NCCC[C@@H](NC(=O)CC[C@H](NC(=O)N[C@@H](CCC(=O)O)C(=O)O)C(=O)O)C(=O)O)C(=O)O)cc1)C(C)(C)C` [rhPSMA7.4, [^19F][^natGa]L-Dap-S-DOTAGA-rhPSMA7, metal not drawn], the half-maximal inhibitory concentration (IC50) on PSMA (setting [6]) was 3.4 nM and 3.56 nM and 2.79 nM and 4.57 nM and 3.78 nM. The IC50 at PSMA (setting [7]) worked out at 3.62 nM. Moreover, in the series on LNCaP cells, the “internalization rate Mean” value is 207.33 % of [^125I]IB-KuE; the individual internalization rates is 209.6 % of [^125I]IB-KuE and 202.6 % of [^125I]IB-KuE and 209.8 % of [^125I]IB-KuE. In the series on LNCaP cells (setting [8]), the internalization is listed as 207.33±4.06%. In series [3], this compound registered a Biodistribution adrenals of 3.57 ± 2.38 % ID/g, a Biodistribution blood of 1.15 ± 0.30 % ID/g, a Biodistribution bone of 0.62 ± 0.30 % ID/g and a Biodistribution heart of 0.71 ± 0.26 % ID/g. Further, in series [3], the Biodistribution intestine was determined as 0.37 ± 0.09 % ID/g, the Biodistribution kidneys is listed as 153 ± 80.3 % ID/g, the Biodistribution liver is given as 0.69 ± 0.20 % ID/g and the Biodistribution lung amounted to 1.59 ± 0.61 % ID/g. In series [3], this compound registered a Biodistribution muscle of 0.31 ± 0.08 % ID/g, a Biodistribution pancreas of 0.50 ± 0.30 % ID/g, a Biodistribution spleen of 18.4 ± 9.77 % ID/g and a Biodistribution stomach of 0.25 ± 0.06 % ID/g. Besides, the Biodistribution tumor in series [3] is reported as 18.9 ± 3.27 % ID/g. Moreover, the “HSA Binding” value at HSA [2] was found to be 96.6%.

For PSMA-1007 [reference compound], at PSMA (other selected PSMA inhibitors, own lab, identical binding assay (Robu et al. 2018), read-out: IC50), the IC50 was 4.2 ± 0.5 nM. In addition, the internalization in the series on LNCaP cells (other selected PSMA inhibitors, own lab, identical assay (Robu et al. 2018)) is 118 ± 4 % of [^125I]IB-KuE. In series [4] (octanol/PBS7.4, (n = 6)), the log partition coefficient (log P) is −1.6. Also, the “HSA Binding” value at HSA [2] stood at 97.8%.

For the compound “SIFA-Asn(AcNH-β-Glc)-PEG-Tyr^3-octreotate”, in series [5], the “log P(ow)” value is 0.96.

As for SIFA-Asn(AcNH-β-Glc)-Tyr^3-octreotate, the “log P(ow)” value in series [5] is on record as 1.23.

As usually defined, the IC50 is the concentration that gives 50% inhibition. As a reminder, the logP is the decadic logarithm of the partition coefficient of the neutral form, usually between octanol and water. Read a high logP as a more lipophilic compound. In general, log P refers to a log measure of how a compound divides between an organic and an aqueous phase. Low readings indicate a more hydrophilic compound, high ones a more lipophilic compound.

Values taken from US12377176B2, “Cancer diagnostic imaging agents” (Technische Universität München, priority 2019, dated 2025).
